Experimental data as given in EP4417607A1, “HETEROCYCLIC COMPOUND AS SOS1 INHIBITOR AND USES THEREOF” (Nanjing Zaiming Pharmaceutical Co., Ltd., priority 2021, dated 2023).

What was measured:
[1] = tested on: p-ERK pathway in H358 cells; experiment: p-ERK pathway inhibition in H358 cells (Advanced phospho-ERK (Thr202/Tyr204) cellular kit, HTRF); type: cell-based; conditions: Homo sapiens, NCI-H358, 1 h compound incubation
Summary of the method: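 Serum-starved H358 cells (50000/well, overnight) treated with compound for 1 h at 37 °C, then lysed; phospho-ERK (Thr202/Tyr204) read by HTRF (665/620 nm ratio). Cell-free wells set 100% inhibition, untreated cells 0%; IC50 fitted from 8 concentrations by four-parameter curve.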

H358 cells = experiment: H358 cell proliferation inhibition (CellTiter-Glo luminescent cell viability assay); type: cell-based; conditions: Homo sapiens, NCI-H358, 168 h, 7 days
Summary of the method: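 H358 cells seeded at 3000 cells/well in RPMI1640/10% FBS, treated with compound for 7 days at 37 °C/5% CO2. Viability read by CellTiter-Glo 3D luminescence, normalised to cell-free (100%) and compound-free (0%) controls; IC50 fitted from 8 concentrations by four-parameter curve.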

| SMILES | IC50 [1] [nM] | IC50 (H358 cells) [nM] |
| --- | --- | --- |
| COc1c(=O)n(C2(CF)CCN(C(C)=O)C2)cc2c(N[C@H](C)c3cccc([N+](=O)[O-])c3C)nc(C)nc12 (stereo partly drawn) [Example 16, 6-(1-acetyl-3-(fluoromethyl)pyrrolidin-3-yl)-8-methoxy-2-methyl-4-(((R)-1-(2-methyl-3-nitrophenyl)ethyl)amino)pyrido[4,3-d]pyrimidine-7(6H)-one] | 28 | 187 |
| Cc1nc(N[C@H](C)c2cccc(S(F)(F)(F)(F)F)c2)c2cn(N3CCOCC3)c(=O)c(-c3ccc(C#N)nc3)c2n1 [Example 22, (R)-5-(2-methyl-6-morpholinyl-7-oxo-4-((1-(3-(pentafluoro-λ^6-sulfanyl)phenyl)ethyl)amino)-6,7-dihydropyrido[4,3-d]pyrimidin-8-yl)pyridinecarbonitrile] | 180 | 129 |
| Cc1nc(N[C@H](C)c2cccc(C(F)F)c2F)c2cn(N3CCOCC3)c(=O)c(N3CCOC[C@@H]3C)c2n1 [Example 68, 4-(((R)-1-(3-(difluoromethyl)-2-fluorophenyl)ethyl)amino)-2-methyl-8-((S)-3-methylmorpholine)-6-morpholinepyrido[4,3-d]pyrimidine-7(6H)-one] | 15.3 | 25.2 |
| [2H][C@](C)(Nc1nc(C)nc2c(N3CCOCC3)c(=O)n(N3CCOCC3)cc12)c1cccc(C(F)F)c1F [Example 78, (R)-4-((1-(3-(difluoromethyl)-2-fluorophenyl)ethyl-1-d)amino)-2-methyl-6,8-dimorpholinepyrido[4,3-d]pyrimidine-7(6H)-one] | 39.6 | 71.1 |
| Cc1nc(N[C@H](C)c2cccc(S(F)(F)(F)(F)F)c2)c2cn(C3(CF)CC3)c(=O)c(N3CCOCC3)c2n1 [Example 46, (R)-6-(1-(fluoromethyl)cyclopropyl)-2-methyl-8-morpholino-4-((1-(3-(pentafluoro-λ^6-sulfanyl)phenyl)ethyl)amino)pyrido[4,3-d]pyrimidine-7(6H)-one] | 112 | 74.8 |
| Cc1nc(N[C@H](C)c2cccc(C(F)F)c2F)c2cn(C3(CF)CC3)c(=O)c(N3CC4CC(C3)N4C3COC3)c2n1 [Example 152, 4-(((R)-1-(3-(difluoromethyl)-2-fluorophenyl)ethyl)amino)-6-(1-(fluoromethyl)cyclopropyl)-2-methyl-8-(6-(oxetan-3-yl)-3,6-diazabicyclo[3.1.1]heptan-3-yl)pyrido[4,3-d]pyrimidine-7(6H)-one] | 76.3 | 13.6 |
| Cc1nc(N[C@H](C)c2cccc([N+](=O)[O-])c2C)c2cn(C3(CF)CC3)c(=O)c(N3CCOCC3)c2n1 [Example 117, (R)-6-(1-(fluoromethyl)cyclopropyl)-2-methyl-4-((1-(2-methyl-3-nitrophenyl)ethyl)amino)-8-morpholinylpyrido[4,3-d]pyrimidine-7(6H)-one] | 22.4 | 13.3 |
| [2H][C@](C)(Nc1nc(C)nc2c(N3CCOC[C@@H]3C)c(=O)n(C3(CF)CC3)cc12)c1cccc(C(F)F)c1F [Example 112, 4-(((R)-1-(3-(difluoromethyl)-2-fluorophenyl)ethyl-1-d)amino)-6-(1-(fluoromethyl)cyclopropyl)-2-methyl-8-((S)-3-methylmorpholine)pyrido[4,3-d]pyrimidine-7(6H)-one] | 109 | 21.2 |
| Cc1nc(N[C@H](C)c2cccc(C(F)F)c2F)c2cn(C3(CF)CC3)c(=O)c(OCc3ccccn3)c2n1 [Example 122, (R)-4-((1-(3-(difluoromethyl)-2-fluorophenyl)ethyl)amino)-6-(1-(fluoromethyl)cyclopropyl)-2-methyl-8-(pyridin-2-ylmethoxy)pyrido[4,3-d]pyrimidine-7(6H)-one] | 111 | 102 |
| Cc1nc(N[C@H](C)c2cccc(C(C)(F)F)c2F)c2cn(C3(CF)CC3)c(=O)c(N3CCOC[C@@H]3C)c2n1 [Example 114, 4-(((R)-1-(3-(1,1-difluoroethyl)-2-fluorophenyl)ethyl)amino)-6-(1-(fluoromethyl)cyclopropyl)-2-methyl-8-((S)-3-methylmorpholine)pyrido[4,3-d]pyrimidine-7(6H)-one] | 54.8 | 24.6 |
| Cc1nc(N[C@H](C)c2cccc(C#N)c2C)c2cn(N3CCOCC3)c(=O)c(N3CCOCC3)c2n1 [Example 108, (R)-2-methyl-3-(1-((2-methyl-6,8-dimorpholine-7-oxo-6,7-dihydropyrido[4,3-d]pyrimidin-4-yl)amino)ethyl)benzonitrile] | 61.3 | 76.4 |

Next, values leading:

| IC50 [1] [nM] | IC50 (H358 cells) [nM] | SMILES |
| --- | --- | --- |
| 117 | 52 | Cc1nc(N[C@H](C)c2cccc(C(F)F)c2F)c2cn(C3(CF)CC3)c(=O)c(N3C[C@@H](C)O[C@@H](C)C3)c2n1 [Example 41, 4-(((R)-1-(3-(difluoromethyl)-2-fluorophenyl)ethyl)amino)-8-((2S,6R)-2,6-dimethylmorpholino)-6-(1-(fluoromethyl)cyclopropyl)-2-methylpyrido[4,3-d]pyrimidine-7(6H)-one] |
| 62.6 | 10.1 | CC(=O)N1CCN(c2c(=O)n(C3(CF)CC3)cc3c(N[C@H](C)c4cccc(C(F)F)c4F)nc(C)nc23)CC1 [Example 49] |
| 70 | 34.9 | Cc1nc(N[C@H](C)c2cccc(C(F)F)c2F)c2cn(C3(CF)CC3)c(=O)c(N3CCN(CC4COC4)CC3)c2n1 [Example 133, (R)-4-((1-(3-(difluoromethyl)-2-fluorophenyl)ethyl)amino)-6-(1-(fluoromethyl)cyclopropyl)-2-methyl-8-(4-(oxetan-3-ylmethyl)piperazin-1-yl)pyrido[4,3-d]pyrimidine-7(6H)-one] |
| 49.2 | 50.8 | Cc1nc(N[C@H](C)c2cccc(C(F)F)c2F)c2cn(C3(CF)CC3)c(=O)c(N3CCO[C@@H](C)C3)c2n1 [Example 43, 4-(((R)-1-(3-(difluoromethyl)-2-fluorophenyl)ethyl)amino)-6-(1-(fluoromethyl)cyclopropyl)-2-methyl-8-((S)-2-methylmorpholine)pyrido[4,3-d]pyrimidine-7(6H)-one] |
| 80.2 | 42.3 | Cc1nc(N[C@H](C)c2cccc(C(F)F)c2F)c2cn(C3(CF)CC3)c(=O)c(N3CCOC[C@@H]3CF)c2n1 [Example 136, 4-(((R)-1-(3-(difluoromethyl)-2-fluorophenyl)ethyl)amino)-6-(1-(fluoromethyl)cyclopropyl)-8-((R)-3-(fluoromethyl)morpholinyl)-2-methylpyrido[4,3-d]pyrimidine-7(6H)-one] |
| 59.8 | 124 | COC1(C)CCN(c2c(=O)n(C3(CF)CC3)cc3c(N[C@H](C)c4cccc(C(F)F)c4F)nc(C)nc23)CC1 [Example 155] |
| 138 | 51.5 | Cc1nc(N[C@H](C)c2cccc(C(F)F)c2F)c2cn(C3(CF)CC3)c(=O)c(N3CCC(N4CCCC4)CC3)c2n1 [Example 159] |
| 30.8 | 10.2 | Cc1nc(N[C@H](C)c2cccc(C(F)F)c2F)c2cn(C3(CF)CC3)c(=O)c(N3CCN(C4COC4)CC3)c2n1 [Example 95, (R)-4-((1-(3-(difluoromethyl)-2-fluorophenyl)ethyl)amino)-6-(1-(fluoromethyl)cydopropyt)-2-methyt-8-(4-(oxetan-3-yt)piperazin-l-yt)pyrido[4,3-d]pyrimidine-7(6H)-one] |
